Experimental data published in ChEMBL document CHEMBL1201862, “PubChem BioAssay data set” (2004).
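Assay format: 96-well plates, 48-hour exposure. GI50 is the concentration that inhibits growth by half.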 Calls of active or inactive are those of the source. Cut-off read from the data, not from the text of the source: active = GI50 up to about 1.1 µM and inactive = higher.

Legend:
Assay in all cases: NCI-60 cell line screen, 48 h
SN12C = tested on: SN12C
TK-10 = tested on: TK-10
SF-268 = tested on: SF-268
CCRF-CEM = tested on: CCRF-CEM
K562 = tested on: K562
HT-29 = tested on: HT-29
SF-295 = tested on: SF-295
NCI-H23 = tested on: NCI-H23
NCI-H460 = tested on: NCI-H460
HCT-15 = tested on: HCT-15
SK-MEL-2 = tested on: SK-MEL-2
OVCAR-3 = tested on: OVCAR-3
SK-MEL-28 = tested on: SK-MEL-28
SNB-75 = tested on: SNB-75
RXF 393 = tested on: RXF 393
A498 = tested on: A498
HOP-92 = tested on: HOP-92
SF-539 = tested on: SF-539

Measured: GI50

COc1ccc(C2C(Cl)C(=O)N2NC(=O)Cc2ccccc2)cc1 (stereo not given)
inactive: SN12C > 100 µM | TK-10 > 100 µM | SF-268 > 100 µM | CCRF-CEM > 100 µM | K562 > 100 µM | HT-29 > 100 µM | SF-295 > 100 µM | NCI-H23 > 100 µM | NCI-H460 > 100 µM | SK-MEL-2 > 100 µM | OVCAR-3 > 100 µM | SK-MEL-28 > 100 µM | SNB-75 > 100 µM | RXF 393 > 100 µM
> 100 µM: HCT-15

O=C1C=CC(=O)N1Nc1ccc([N+](=O)[O-])cc1[N+](=O)[O-]
inactive: A498 62.1 µM | SN12C > 100 µM | TK-10 > 100 µM | SF-268 > 100 µM | CCRF-CEM 14 µM | K562 > 42.4 µM | HT-29 > 71.4 µM | SF-295 > 100 µM | NCI-H23 > 100 µM | NCI-H460 > 100 µM | HOP-92 > 49.1 µM | SK-MEL-2 > 100 µM | OVCAR-3 98.4 µM | SK-MEL-28 > 43.4 µM | SF-539 > 100 µM | SNB-75 > 100 µM
> 74.1 µM: HCT-15

CCOc1ccc(/N=N/c2c(-c3ccccc3)nn(C(=O)CC(=O)Nc3cccc(C)c3)c2-c2ccccc2)cc1
inactive: SN12C > 100 µM | TK-10 > 100 µM | SF-268 39 µM | CCRF-CEM 76.9 µM | K562 38.8 µM | HT-29 22 µM | SF-295 > 100 µM | NCI-H23 > 100 µM | NCI-H460 > 100 µM | HOP-92 > 100 µM | SK-MEL-2 > 100 µM | OVCAR-3 > 100 µM | SK-MEL-28 > 100 µM | SF-539 76.2 µM | SNB-75 27.9 µM | RXF 393 57.9 µM

COc1ccc(/C=C(\Cl)c2ccc(OC)cc2)cc1
inactive: A498 > 100 µM | SN12C > 100 µM | TK-10 > 100 µM | SF-268 > 100 µM | CCRF-CEM > 100 µM | K562 > 100 µM | NCI-H23 > 100 µM | NCI-H460 > 100 µM | HOP-92 > 100 µM | OVCAR-3 > 100 µM | SK-MEL-28 > 100 µM | SF-539 > 100 µM | SNB-75 > 100 µM

O=C(O)Cc1cc(=O)[nH]c2c1C(=O)CCC2
> 100 µM: HCT-15
inactive: SN12C > 100 µM | TK-10 > 100 µM | SF-268 > 100 µM | CCRF-CEM > 100 µM | K562 > 100 µM | HT-29 > 100 µM | SF-295 > 100 µM | NCI-H23 > 100 µM | NCI-H460 > 100 µM | HOP-92 > 100 µM | SK-MEL-2 > 100 µM | OVCAR-3 > 100 µM | SK-MEL-28 > 100 µM | RXF 393 > 100 µM

CC(C)CN(CC(C)C)C(=O)C1CCCC[C@@H]1C(=O)O (stereo not given in full)
> 100 µM: HCT-15
inactive: A498 > 100 µM | SN12C > 100 µM | TK-10 > 100 µM | SF-268 > 100 µM | CCRF-CEM > 100 µM | K562 > 100 µM | HT-29 > 100 µM | SF-295 > 100 µM | NCI-H23 > 100 µM | NCI-H460 > 100 µM | HOP-92 > 100 µM | SK-MEL-2 > 100 µM | OVCAR-3 > 100 µM | SK-MEL-28 > 100 µM | SF-539 > 100 µM | SNB-75 > 100 µM

O=C(O)c1cc(=O)c2c([nH]c3ccccc32)s1
inactive: SN12C > 100 µM | TK-10 > 100 µM | SF-268 > 100 µM | CCRF-CEM > 100 µM | K562 > 100 µM | SF-295 > 100 µM | NCI-H23 > 100 µM | NCI-H460 > 100 µM | HOP-92 > 100 µM | SK-MEL-2 > 100 µM | OVCAR-3 > 100 µM | SK-MEL-28 > 100 µM | SNB-75 56.8 µM | RXF 393 > 100 µM
> 100 µM: HCT-15

CC1=C[C@H]2C[C@@]3(C)O[C@@H]([C@]4(C)CC[C@H]([C@@H](C)C(=O)O)OO4)CC3C(C)(C)[C@H]2CC1 (stereo not given in full)
inactive: SN12C 1.39 µM | TK-10 2.79 µM | SF-268 2.17 µM | SF-295 2.01 µM | NCI-H23 1.91 µM | NCI-H460 1.13 µM | SK-MEL-2 1.71 µM | OVCAR-3 1.81 µM | SK-MEL-28 1.56 µM | SF-539 1.94 µM | RXF 393 1.25 µM
active: HT-29 0.479 µM | HOP-92 0.078 µM | SNB-75 1.08 µM

N#Cc1ccc(C2OCC3CC=CCC3CO2)cc1 (stereo not given)
61.2 µM: HCT-15
inactive: SN12C > 100 µM | SF-268 > 100 µM | CCRF-CEM 44.7 µM | K562 30.9 µM | HT-29 44.7 µM | SF-295 48.1 µM | NCI-H23 36.3 µM | NCI-H460 68.7 µM | SK-MEL-2 > 100 µM | OVCAR-3 91 µM | SK-MEL-28 78.5 µM | SF-539 > 100 µM | SNB-75 64.9 µM | RXF 393 54.3 µM

O=C1C2=C(c3ccccc31)C(c1cccc(Cl)c1)NC(S)=N2 (stereo not given)
inactive: A498 > 100 µM | SN12C > 100 µM | TK-10 > 100 µM | SF-268 > 100 µM | CCRF-CEM > 100 µM | K562 > 100 µM | HT-29 > 100 µM | SF-295 > 100 µM | NCI-H23 > 100 µM | NCI-H460 > 100 µM | HOP-92 > 100 µM | SK-MEL-2 > 100 µM | OVCAR-3 > 100 µM | SK-MEL-28 > 100 µM | SF-539 > 100 µM | SNB-75 31.9 µM
> 100 µM: HCT-15

C[P+](C)(C)C
> 100 µM: HCT-15
inactive: SN12C > 100 µM | TK-10 > 100 µM | SF-268 > 100 µM | CCRF-CEM > 100 µM | K562 > 100 µM | HT-29 > 100 µM | SF-295 > 100 µM | NCI-H23 > 100 µM | NCI-H460 > 100 µM | HOP-92 > 100 µM | SK-MEL-2 > 100 µM | OVCAR-3 > 100 µM | SK-MEL-28 > 100 µM | SF-539 > 100 µM | SNB-75 > 100 µM | RXF 393 > 100 µM

O=C(COc1ccc(Cl)cc1)N1N=C(c2ccc(Cl)cc2)CC1(O)c1ccccc1 (stereo not given)
inactive: A498 13.5 µM | SN12C 5 µM | TK-10 26.7 µM | SF-268 > 43.9 µM | CCRF-CEM 16.7 µM | K562 9.73 µM | HT-29 12.9 µM | SF-295 23.8 µM | NCI-H23 13.1 µM | NCI-H460 15.2 µM | HOP-92 21.5 µM | SK-MEL-2 24.3 µM | OVCAR-3 16.3 µM | SK-MEL-28 18.2 µM | SF-539 24.8 µM | SNB-75 29.9 µM
13.1 µM: HCT-15

O=C(/C=C/c1cccc([N+](=O)[O-])c1)c1ccc([N+](=O)[O-])cc1
inactive: A498 > 100 µM | SN12C > 100 µM | TK-10 > 100 µM | SF-268 > 100 µM | CCRF-CEM > 100 µM | K562 > 100 µM | HT-29 > 100 µM | SF-295 > 100 µM | NCI-H23 > 100 µM | NCI-H460 > 100 µM | SK-MEL-2 > 100 µM | OVCAR-3 > 100 µM | SK-MEL-28 > 100 µM | SF-539 > 100 µM | SNB-75 > 100 µM | RXF 393 > 100 µM
> 100 µM: HCT-15
